Structures can show the parent of a compound that is named as a salt.
molecular target: Aurora A (Homo sapiens (Human), UniProt O14965); assay: Aurora A inhibition assay (Z-Lyte); type: biochemical
Sequence (O14965 whole entry): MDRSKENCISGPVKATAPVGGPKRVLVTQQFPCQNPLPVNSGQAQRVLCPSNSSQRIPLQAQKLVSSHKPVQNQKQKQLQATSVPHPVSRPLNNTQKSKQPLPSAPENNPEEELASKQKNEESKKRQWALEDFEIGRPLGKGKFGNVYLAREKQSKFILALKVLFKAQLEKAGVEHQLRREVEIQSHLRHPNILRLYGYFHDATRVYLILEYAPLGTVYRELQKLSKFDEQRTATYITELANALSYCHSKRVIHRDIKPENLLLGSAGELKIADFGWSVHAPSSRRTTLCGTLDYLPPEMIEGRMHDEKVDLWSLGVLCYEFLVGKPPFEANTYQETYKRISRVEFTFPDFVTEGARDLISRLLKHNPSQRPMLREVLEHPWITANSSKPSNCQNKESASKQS

Row | inhibition at 1 µM [%] | SMILES
1 | < 50 | O=C1Nc2ccccc2[C@]12C[C@H]2c1ccc2c(I)n[nH]c2c1 (relative stereo) [Example A9, (1R*,2S*)-2-(3-iodo-1H-indazol-6-yl)spiro[cyclopropane-1,3′-indolin]-2′-one]
2 | < 50 | O=C1Nc2ncc(Br)cc2[C@]12C[C@H]2c1ccc2c(/C=C/c3cccnc3)n[nH]c2c1 (relative stereo) [Example A27, (1R*,2S*)-5′-bromo-2-(3-((E)-2-(pyridin-3-yl)vinyl)-1H-indazol-6-yl)spiro[cyclopropane-1,3′-pyrrolo[2,3-b]pyridin]-2′(1′H)-one]
3 | > 50 | O=C1Nc2ccccc2[C@]12C[C@H]2c1ccc2c(/C=C/c3cccnc3)n[nH]c2c1 (relative stereo) [Example A28, (1R*,2S*)-2-(3-((E)-2-(pyridin-3-yl)vinyl)-1H-indazol-6-yl)spiro-[cyclopropane-1,3′-indolin]-2′-one]
4 | < 50 | O=C1Nc2ccc(F)cc2[C@]12C[C@H]2c1ccc2c(I)n[nH]c2c1 (relative stereo) [Example A40, (1R*,2S*)-5′-fluoro-2-(3-iodo-1H-indazol-6-yl)spiro[cyclopropane-1,3′-indolin]-2′-one]
5 | < 50 | COc1ccc2c(c1)[C@]1(C[C@H]1c1ccc3c(-c4ccc(CO)cc4)n[nH]c3c1)C(=O)N2 (relative stereo) [Example A45, (1R*,2S*)-2-(3-(4-(hydroxymethyl)phenyl)-1H-indazol-6-yl)-5′-methoxyspiro[cyclopropane-1,3′-indolin]-2′-one 2,2,2-trifluoroacetate]
6 | < 50 | COc1ccc2c(c1)[C@]1(C[C@H]1c1ccc3c(C#Cc4cccnc4)n[nH]c3c1)C(=O)N2 (relative stereo) [Example A52, (1R*,2S*)- and (1R*,2S*)-5′-methoxy-2-(3-(pyridin-3-ylethynyl)-1H-indazol-6-yl)spiro[cyclopropane-1,3′-indolin]-2′-one]
7 | > 50 | O=C1Nc2ccccc2[C@]12C[C@H]2c1ccc2c(/C=C/c3ccccn3)n[nH]c2c1 (relative stereo) [Example A53, (1R*,2S*)-2-(3-((E)-2-(pyridin-2-yl)vinyl)-1H-indazol-6-yl)spiro[cyclopropane-1,3′-indolin]-2′-one]
8 | > 50 | N#Cc1ccc(/C=C/c2n[nH]c3cc([C@@H]4C[C@@]45C(=O)Nc4ccccc45)ccc23)cc1 (relative stereo) [Example A54, 4-((E)-2-(6-((1R*,2S*)-2′-oxospiro[cyclopropane-1,3′-indoline]-2-yl)-1H-indazol-3-yl)vinyl)benzonitrile]
9 | > 50 | O=C1Nc2ccccc2[C@]12C[C@H]2c1ccc2c(/C=C/c3ccc(CN4CCCCC4)nc3)n[nH]c2c1 (relative stereo) [Example A63, (1R*,2S*)-(E)-2-(3-((E)-2-(6-(piperidin-1-ylmethyl)pyridin-3-yl)vinyl)-1H-indazol-6-yl)spiro[cyclopropane-1,3′-indolin]-2′-one 2,2,2-trifluoroacetate salt]

Further lines, the compound ahead of its results:

Row | SMILES | inhibition at 1 µM [%]
10 | COc1ccc2c(c1)[C@]1(CC1c1ccc3c(/C=C/c4ccc(CN5CCCCC5)nc4)n[nH]c3c1)C(=O)N2 (mixture of isomers) [Example A62, (1R,2S)-(E)-5′-methoxy-2-(3-((E)-2-(6-(piperidin-1-ylmethyl)pyridin-3-yl)vinyl)-1H-indazol-6-yl)spiro[cyclopropane-1,3′-indolin]-2′-one 2,2,2-trifluoroacetate salt] | > 50
11 | CN1CCN(c2ccc(-c3n[nH]c4cc([C@@H]5C[C@@]56C(=O)Nc5ccc(Br)cc56)ccc34)cn2)CC1 (relative stereo) [Example A19, (1R*,2S*)-5′-bromo-2-(3-(6-(4-methylpiperazin-1-yl)pyridin-3-yl)-1H-indazol-6-yl)spiro[cyclopropane-1,3′-indolin]-2′-one] | < 50
12 | COc1ccc2c(c1)[C@]1(C[C@H]1c1ccc3c(-c4ccc(N5CCOCC5)nc4)n[nH]c3c1)C(=O)N2 (relative stereo) [Example A20, (1R*,2S*)*-5′-Methoxy-2-(3-(6-morpholinopyridin-3-yl)-1H-indazol-6-yl)spiro[cyclopropane-1,3′-indolin]-2′-one] | < 50
13 | COc1ccc2c(c1)[C@]1(C[C@H]1c1ccc3c(/C=C/c4ccc(CN5CCOCC5)cc4)n[nH]c3c1)C(=O)N2 (relative stereo) [Example A41, (1R*,2S*)-(E)-5′-methoxy-2-(3-(4-(morpholinomethyl)styryl)-1H-indazol-6-yl)spiro[cyclopropane-1,3′-indolin]-2′-one 2,2,2-trifluoroacetate] | > 50
14 | COc1ccc2c(c1)[C@]1(C[C@H]1c1ccc3c(-c4cccc(CN5CCCCC5)c4)n[nH]c3c1)C(=O)N2 (relative stereo) [Example A44, (1R*,2S*)-5′-methoxy-2-(3-(3-(piperidin-1-ylmethyl)phenyl)-1H-indazol-6-yl)spiro[cyclopropane-1,3′-indolin]-2′-one 2,2,2-trifluoroacetate] | < 50
15 | COc1ccc2c(c1)[C@]1(C[C@H]1c1ccc3c(-c4cccc(N5CCNCC5)c4)n[nH]c3c1)C(=O)N2 (relative stereo) [Example A47, (1R*,2S*)-5′-methoxy-2-(3-(3-(piperazin-1-yl)phenyl)-1H-indazol-6-yl)spiro[cyclopropane-1,3′-indolin]-2′-one 2,2,2-trifluoroacetate] | < 50
16 | COc1ccc2c(c1)[C@]1(C[C@H]1c1ccc3c(-c4ccc(N5CCNCC5)cc4)n[nH]c3c1)C(=O)N2 (relative stereo) [Example A48, (1R*,2S*)-5′-methoxy-2-(3-(4-(piperazin-1-yl)phenyl)-1H-indazol-6-yl)spiro[cyclopropane-1,3′-indolin]-2′-one 2,2,2-trifluoroacetate] | < 50
17 | O=C1Nc2ccccc2[C@]12C[C@H]2c1ccc2c(/C=C/c3ccc(CN4CCCCC4)cc3)n[nH]c2c1 (relative stereo) [Example A57, (1R*,2S*)-(E)-2-(3-(4-(piperidin-1-ylmethyl)styryl)-1H-indazol-6-yl)spiro[cyclopropane-1,3′-indolin]-2′-one 2,2,2-trifluoroacetate] | > 50
18 | O=C1Nc2ccccc2[C@]12C[C@H]2c1ccc2c(/C=C/c3ccc(CN4CCCC4)cc3)n[nH]c2c1 (relative stereo) [Example A60, (1R*,2S*)-(E)-2-(3-(4-(pyrrolidin-1-ylmethyl)styryl)-1H-indazol-6-yl)spiro[cyclopropane-1,3′-indolin]-2′-one 2,2,2-trifluoroacetate] | > 50
19 | CN1C(=O)[C@@]2(C[C@H]2c2ccc3c(/C=C/c4ccc(CN5CCOCC5)cc4)n[nH]c3c2)c2ccccc21 (relative stereo) [Example A87, (1R*,2S*)-(E)-1′-methyl-2-(3-(4-(morpholinomethyl)styryl)-1H-indazol-6-yl)spiro[cyclopropane-1,3′-indolin]-2′-one 2,2,2-trifluoroacetate] | > 50
20 | COc1ccc2c(c1)[C@]1(C[C@H]1c1ccc3c(-c4ccc(N5CCN(C(C)C)CC5)cc4)n[nH]c3c1)C(=O)N2 (relative stereo) [Example A96, (1R*,2S*)-2-(3-(4-(4-isopropylpiperazin-1-yl)phenyl)-1H-indazol-6-yl)-5′-methoxyspiro[cyclopropane-1,3′-indolin]-2′-one] | < 50

Source: patent publication US10358436B2, “Kinase inhibitors and method of treating cancer” (University Health Network, priority 2010, dated 2019)
